Laboratory results reported in patent US20250024871A1, “AMIDE COMPOUNDS AND THEIR USE AS FLAVOR MODIFIERS” (Firmenich Incorporated, priority 2021, published 2025).

Biological target: T1, T1R umami taste receptor (Homo sapiens, UniProt Q7RTX0+Q7RTX1)
T1 sequence (Q7RTX1 21-841): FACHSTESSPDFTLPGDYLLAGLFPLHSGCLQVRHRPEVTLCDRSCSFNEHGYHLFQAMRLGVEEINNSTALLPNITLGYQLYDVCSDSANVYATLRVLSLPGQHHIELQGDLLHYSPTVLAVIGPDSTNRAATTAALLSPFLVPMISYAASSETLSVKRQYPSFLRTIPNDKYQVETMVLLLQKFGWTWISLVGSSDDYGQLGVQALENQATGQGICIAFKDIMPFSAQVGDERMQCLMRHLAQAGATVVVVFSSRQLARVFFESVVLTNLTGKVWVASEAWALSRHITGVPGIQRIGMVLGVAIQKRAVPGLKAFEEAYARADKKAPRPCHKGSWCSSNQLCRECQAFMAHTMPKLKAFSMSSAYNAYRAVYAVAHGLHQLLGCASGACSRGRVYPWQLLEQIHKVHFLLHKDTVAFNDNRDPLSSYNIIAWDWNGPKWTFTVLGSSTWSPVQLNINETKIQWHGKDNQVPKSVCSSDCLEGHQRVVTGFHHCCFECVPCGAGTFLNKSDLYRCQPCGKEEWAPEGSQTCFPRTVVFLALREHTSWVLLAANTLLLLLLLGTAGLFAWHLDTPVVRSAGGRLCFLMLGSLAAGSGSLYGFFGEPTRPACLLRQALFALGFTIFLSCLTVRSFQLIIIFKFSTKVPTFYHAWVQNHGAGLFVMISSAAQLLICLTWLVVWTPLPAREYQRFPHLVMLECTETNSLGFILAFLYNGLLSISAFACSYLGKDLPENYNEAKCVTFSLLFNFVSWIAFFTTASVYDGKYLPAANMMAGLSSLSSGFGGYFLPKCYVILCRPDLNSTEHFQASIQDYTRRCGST
T1 sequence (Q7RTX0 21-852): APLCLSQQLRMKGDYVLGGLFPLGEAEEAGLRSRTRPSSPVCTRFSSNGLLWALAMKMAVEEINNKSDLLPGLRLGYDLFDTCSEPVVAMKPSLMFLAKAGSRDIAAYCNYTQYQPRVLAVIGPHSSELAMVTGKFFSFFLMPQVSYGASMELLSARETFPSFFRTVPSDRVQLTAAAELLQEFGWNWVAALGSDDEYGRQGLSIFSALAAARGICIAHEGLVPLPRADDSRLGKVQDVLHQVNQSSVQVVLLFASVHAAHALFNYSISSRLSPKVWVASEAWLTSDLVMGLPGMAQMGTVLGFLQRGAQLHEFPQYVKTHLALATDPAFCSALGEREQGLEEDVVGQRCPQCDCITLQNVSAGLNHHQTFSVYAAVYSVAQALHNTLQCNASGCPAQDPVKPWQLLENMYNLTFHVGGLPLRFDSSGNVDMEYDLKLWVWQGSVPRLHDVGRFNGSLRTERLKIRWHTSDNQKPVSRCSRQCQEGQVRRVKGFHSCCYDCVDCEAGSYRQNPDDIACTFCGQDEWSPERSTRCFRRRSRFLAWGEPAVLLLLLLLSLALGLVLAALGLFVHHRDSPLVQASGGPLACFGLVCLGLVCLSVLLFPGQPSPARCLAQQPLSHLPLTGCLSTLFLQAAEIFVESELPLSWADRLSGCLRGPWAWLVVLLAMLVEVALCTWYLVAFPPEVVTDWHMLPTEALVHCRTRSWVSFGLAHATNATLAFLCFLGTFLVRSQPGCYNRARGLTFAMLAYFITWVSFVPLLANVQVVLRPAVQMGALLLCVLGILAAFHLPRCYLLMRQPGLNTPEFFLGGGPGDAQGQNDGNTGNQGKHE
Assay: in vitro cell-based assay having cells that express the T1R umami taste receptor (enhancement of MSG)
Settings: for EC50: cells expressing T1R umami taste receptor, read-out: EC50 for enhancement of MSG binding
Experimental: Each of Compounds 101-183 was synthesized according to one of the general procedures set forth above in Examples 1. Thereafter, the compounds were tested in an in vitro cell-based assay having cells that express the T1R umami taste receptor. Dose-binding curves were recorded and the EC50 was determined for enhancement of MSG binding. Table 2 sets forth the calculated EC50 values for certain tested compounds as well as the MSG enhancement ratio at a particular concentration.

Row | SMILES | EC50 | MSG Enh. Ratio (compound at 50 μM) | MSG Enh. Ratio (compound at 10 μM)
1 | COC(=O)CC[C@H](NC(=O)/C=C/C(C)C)C(=O)OC [Compound 173, Dimethyl (E)-(4-methylpent-2-enoyl)-L-glutamate] | > 50 µM | 3.1 @ | 
2 | CCC/C=C/C(=O)N[C@H](C(=O)OC)[C@@H](C)CC [Compound 174, Methyl ((E)-hex-2-enoyl)-L-isoleucinate] | 30 µM |  | 3.6 @
3 | CCC/C=C/C(=O)N[C@H](C(=O)OCC)C(C)C [Compound 175, Ethyl (E)-hex-2-enoyl-L-valinate] | > 50 µM | 4.4 @ | 
4 | CCC/C=C/C(=O)N[C@@H](Cc1ccccc1)C(=O)OC [Compound 176, Methyl (E)-hex-2-enoyl-L-phenylalaninate] |  | 8.4 @ | 
5 | CCC/C=C/C(=O)N[C@@H](Cc1ccccc1)C(=O)OCC [Compound 177, Ethyl (E)-hex-2-enoyl-L-phenylalaninate] | ~40 µM | 8.8 @ | 
6 | CCC/C=C/C(=O)N[C@@H](CCC(=O)OCC)C(=O)OCC [Compound 178, Diethyl (E)-hex-2-enoyl-L-glutamate] | > 50 µM | 5.6 @ | 
7 | C/C=C/C=C/C(=O)N[C@H](C(=O)OCC)C(C)C [Compound 179, Ethyl ((2E,4E)-hexa-2,4-dienoyl)-L-valinate] | > 50 µM | 3.0 @ | 
8 | C/C=C/C=C/C(=O)N[C@@H](Cc1ccccc1)C(=O)OCC [Compound 180, Ethyl ((2E,4E)-hexa-2,4-dienoyl)-L-phenylalaninate] | > 50 µM | 3.4 @ | 
9 | C/C=C/C=C/C(=O)N[C@@H](CC(C)C)C(=O)OCC [Compound 181, Ethyl ((2E,4E)-hexa-2,4-dienoyl)-L-leucinate] | > 50 µM | 4.5 @ | 
10 | C/C=C/C=C/C(=O)N[C@@H](CCC(=O)OCC)C(=O)OCC [Compound 182, Diethyl ((2E,4E)-hexa-2,4-dienoyl)-L-glutamate] | > 50 µM | 3.4 @ | 
11 | C/C=C/C=C/C(=O)N[C@H](C(=O)OCC)[C@@H](C)CC [Compound 183, Ethyl ((2E,4E)-hexa-2,4-dienoyl)-L-isoleucinate] | > 50 µM | 2.8 @ | 
